Source: patent US20100248265A1, “COMPOSITIONS AND METHODS FOR DIAGNOSIS AND TREATMENT OF CANCER” (The Salk Institute for Biological Studies, priority 2009, published 2010)

Legend:
mTOR [1] = molecular target: mTOR (Homo sapiens, UniProt P42345); experiment: Western blot for mTOR autophosphorylation at S2481 in cells treated with mTOR kinase inhibitors; assay type: cell-based; conditions: actively growing Hela and MDA-MB-468 cells; 1 h at 37° C.
Method: (§4) Whole cell lysates were then analyzed for mTOR phosphorylation at S2481. Phosphorylation of the mTORC1 substrate S6K at T389 and the mTORC2 substrate Akt at S473 were analyzed as controls.

mTOR [2] = experiment: as above; assay type: cell-based; conditions: actively growing MEFs, U2OS, Hela and MDA-MB-468 cells; 1 h at 37° C.
Method: as §4

S6K = experiment: Western blot for mTORC1 substrate S6K phosphorylated at T389 in cells treated with mTOR kinase inhibitors; conditions: 1 h at 37° C.
Method: as §4

Akt = experiment: Western blot for mTORC2 substrate Akt phosphorylated at S473 in cells treated with mTOR kinase inhibitors; conditions: 1 h at 37° C.
Method: as §4

[3] = system: ER positive breast cancer; conditions: ER positive breast cancer patients; randomized trial, endocrine therapy plus everolimus; cited from earlier work
breast cancer = conditions: unselected breast cancer patients; cited from earlier work
mTOR [4] = molecular target: T1, mTOR (Homo sapiens, UniProt P42345+P62942); experiment: Immunoblot of whole cell lysates for mTOR phosphorylated on S2448 (rapamycin / insulin treatment); assay type: cell-based; conditions: serum-starved HEK293 cells; 200 nM insulin for 5 min.
T1 construct: specifically deplete endogenous mTOR, Rictor or Raptor were expressed in HEK293 cells; endogenous in cells
Source text: (§1) Antibodies and reagents. The following antibodies were purchased from Cell Signaling Technology: phospho-mTOR(S2448 and S2481), Akt and phospho-Akt (S473) rabbit polyclonal antibodies. Phospho-S6K (T389) and mTOR (mTab1) rabbit polyclonal antibodies were purchased from Millipore. Rictor and mSin1 rabbit polyclonal antibodies were purchased from Bethyl Laboratories. The anti-Raptor rabbit antiserum was developed with the antibody service from Invitrogen utilizing the peptide […], amino acid sequence 918-933 of human Raptor. Rapamycin was purchased from Sigma. Insulin and IGF-1 were purchased from Research Diagnostics, Inc.
(§2) Cell culture, cell lysis and immunoprecipitation. […]
(§3) Cells were rinsed 2× with cold PBS and lysed in 1 ml 50 mM Hepes pH 7.5, 150 mM NaCl, 10% glycerol, 0.3% Chaps (v/v), 1.5 mM MgCl2, 1 mM EGTA, 100 mM NaF, 500 μM sodium orthovanadate, 10 μg/ml aprotinin, and 10 μg/ml leupeptin per 10 cm tissue culture dish. […] Protein concentrations were determined using the Bio-Rad DC Protein Assay kit according to manufacturer's protocol. […]
Because S2481 phosphorylation requires intact mTORC2, we tested whether prolonged rapamycin treatment had any effect on S2481 phosphorylation. Whole cell lysates from control and insulin-stimulated cells treated with 100 nM rapamycin for either one or 24 hr were analyzed for phosphorylation of mTOR on S2448 and S2481.

mTOR [5] = experiment: Immunoblot of whole cell lysates for mTOR phosphorylated on S2481 (rapamycin / insulin treatment); assay type: cell-based; conditions: serum-starved HEK293 cells; 200 nM insulin for 5 min.
Source text: Antibodies and reagents. The following antibodies were purchased from Cell Signaling Technology: phospho-mTOR(S2448 and S2481), Akt and phospho-Akt (S473) rabbit polyclonal antibodies. Phospho-S6K (T389) and mTOR (mTab1) rabbit polyclonal antibodies were purchased from Millipore. Rictor and mSin1 rabbit polyclonal antibodies were purchased from Bethyl Laboratories. The anti-Raptor rabbit antiserum was developed with the antibody service from Invitrogen utilizing the peptide [sequence], amino acid sequence 918-933 of human Raptor. Rapamycin was purchased from Sigma. Insulin and IGF-1 were purchased from Research Diagnostics, Inc.
Lentivirus-mediated gene knockdown. […]
Virus-containing supernatants were collected 48 hr. after transfection. Cells were infected twice in the presence of 1 μg/ml polybrene, selected for puromycin resistance and analyzed 48-72 hr. post-infection. […]

mTORC2 = molecular target: T2, mTORC2 (Homo sapiens, UniProt P42345+P62942); experiment: Rictor (and Raptor) immunoprecipitates analyzed by immunoblotting for bound mTOR (mTORC2 assembly); assay type: cell-based; conditions: serum-starved HEK293 cells; 200 nM insulin for 5 min.
T2 construct: endogenous in cells; host or cells: HEK293, U2OS, MDA-MB-231, MDA-MB-468, SKBR3, A549
Source text: as §1, §2, §3
Because S2481 phosphorylation requires intact mTORC2, we tested whether prolonged rapamycin treatment had any effect on S2481 phosphorylation. Whole cell lysates from control and insulin-stimulated cells treated with 100 nM rapamycin for either one or 24 hr were analyzed for phosphorylation of mTOR on S2448 and S2481. […]

[6] = actively growing Hela and MDA-MB-468 cells
[7] = actively growing MEFs, U2OS, Hela and MDA-MB-468 cells

| Molecule | mTOR autophosphorylation at S2481 (mTOR [2]) | phosphorylation of mTORC1 substrate S6K at T389 (S6K; [6]) | phosphorylation of mTORC1 substrate S6K at T389 (S6K; [7]) | phosphorylation of mTORC2 substrate Akt at S473 (Akt; [6]) | phosphorylation of mTORC2 substrate Akt at S473 (Akt; [7]) | further results |
| --- | --- | --- | --- | --- | --- | --- |
| COc1ccc2c(c1OC)N=C(NC(=O)c1cccnc1)N1CCN=C21 [PIK-90] | – | – | – | – | – | mTOR autophosphorylation at S2481 (mTOR [1]): reduction |
| CC(C)n1nc(-c2cc3cc(O)ccc3[nH]2)c2c(N)ncnc21 [PP242] | abolished | inhibited | inhibited | inhibited | inhibited | – |
| CCC(=O)N1CCN(c2ccc(-n3c(=O)ccc4cnc5ccc(-c6cnc7ccccc7c6)cc5c43)cc2C(F)(F)F)CC1 [Torin1] | abolished | inhibited | inhibited | inhibited | inhibited | – |
| CO[C@H]1C[C@@H]2CC[C@@H](C)[C@@](O)(O2)C(=O)C(=O)N2CCCC[C@H]2C(=O)O[C@H]([C@H](C)C[C@@H]2CC[C@@H](OCCO)[C@H](OC)C2)CC(=O)[C@H](C)/C=C(\C)[C@@H](O)[C@@H](OC)C(=O)[C@H](C)C[C@H](C)/C=C/C=C/C=C/1C [everolimus] | – | – | – | – | – | effect on efficacy of endocrine therapy [3]: significantly increases the efficacy of endocrine therapy |
| CO[C@H]1C[C@@H]2CC[C@@H](C)[C@@](O)(O2)C(=O)C(=O)N2CCCC[C@H]2C(=O)O[C@H]([C@H](C)C[C@@H]2CC[C@@H](OC(=O)C(C)(CO)CO)[C@H](OC)C2)CC(=O)[C@H](C)/C=C(\C)[C@@H](O)[C@@H](OC)C(=O)[C@H](C)C[C@H](C)/C=C/C=C/C=C/1C [temsirolimus] | – | – | – | – | – | patients who responded to treatment (breast cancer): 10% |
| insulin: growth factor used to stimulate serum-starved cells; purchased from Research Diagnostics, Inc. | – | – | – | – | – | S2448 phosphorylation of mTOR (mTOR [4]): increased; S2481 phosphorylation of mTOR (mTOR [5]): increased; amount of mTOR associated with either Raptor or Rictor (mTORC2): did not change |
